Here are results for eleven molecules from ChEMBL document CHEMBL1144640, “Novel pyrazole derivatives as potent inhibitors of type II topoisomerases. Part 1: synthesis and preliminary SAR analysis” (Bioorg Med Chem Lett, 2007).

In one experiment the test system is Streptococcus pneumoniae. In words: Antibacterial activity against Streptococcus pneumonia ATCC 49619. It counts as functional.
In another experiment the test system is Escherichia coli. Description: Antibacterial activity against Escherichia coli KL16. It is filed as functional.
In a further experiment the test system is Staphylococcus aureus. In words: Antibacterial activity against Staphylococcus aureus ATCC 13709. It is filed as functional.
Experiment [1] in a line: Inhibition of bacterial DNA gyrase. Also noted: species or system Bacteria.
The nature of experiment [2]: Inhibition of bacterial topoisomerase 4. Also on record: species or system Bacteria.

≈ marks a conversion by molar mass, not a printed value.

In the case of `COc1ccc2nccc(-n3cc4c(n3)CCN(Cc3ccc5c(c3)OCCO5)C4)c2c1`, the MIC with Streptococcus pneumoniae, in the experiment with Escherichia coli and in the experiment with Staphylococcus aureus was above 128 µg/mL in each case. The molecule further had a half-inhibitory concentration (IC50) in experiment [1] above 8 µg/mL.

On to `COc1ccc2nccc(-n3ncc4c3CCN(Cc3ccc5c(c3)OCCO5)C4)c2c1`, for which the minimum inhibitory concentration (MIC) against Streptococcus pneumoniae, with Escherichia coli and against Staphylococcus aureus was above 128 µg/mL each time. In addition, the concentration for half-maximal inhibition (IC50) in experiment [1] was above 8 µg/mL.

As to `COc1ccc2nccc(-n3ncc4c3CCC(NCc3ccc5c(c3)OCCO5)C4)c2c1` (stereo not given), the MIC with Streptococcus pneumoniae is 32 µg/mL (≈ 72.3 µM); against Escherichia coli, above 128 µg/mL; with Staphylococcus aureus, 16 µg/mL (≈ 36.2 µM). Besides, the half-inhibitory concentration (IC50) in experiment [1] is above 8 µg/mL.

For `COc1ccc2nccc(-n3cc4c(n3)CCC(NCc3ccc5c(c3)NC(=O)CS5)C4)c2c1` (stereo not given), the MIC against Streptococcus pneumoniae was 0.5 µg/mL (≈ 1.06 µM); in the experiment with Escherichia coli it was 2 µg/mL (≈ 4.24 µM); in the experiment with Staphylococcus aureus, 0.25 µg/mL (≈ 0.53 µM). Further, the IC50 in experiment [2] worked out at 0.03 µg/mL (≈ 0.0636 µM); in experiment [1], 0.25 µg/mL (≈ 0.53 µM).

With `COc1ccc2nccc(-n3cc4c(n3)CCC(NC(=O)c3ccc5c(c3)NC(=O)CS5)C4)c2c1` (stereo not given), the MIC was 2 µg/mL (≈ 4.12 µM) with Streptococcus pneumoniae, 4 µg/mL (≈ 8.24 µM) against Escherichia coli and 4 µg/mL (≈ 8.24 µM) in the experiment with Staphylococcus aureus. The figures for the concentration for half-maximal inhibition (IC50) in experiment [2] and in experiment [1] were 0.125 µg/mL (≈ 0.257 µM) and 1 µg/mL (≈ 2.06 µM), respectively.

As to `COc1ccc2nccc(-n3cc4c(n3)CCC(NCc3ccc5c(c3)NC(=O)CS5)C4)c2n1` (stereo not given), the results for the MIC with Streptococcus pneumoniae, against Escherichia coli and against Staphylococcus aureus were 2 µg/mL (≈ 4.23 µM), 1 µg/mL (≈ 2.12 µM) and 0.25 µg/mL (≈ 0.529 µM), respectively. For the same molecule, the IC50 in experiment [2] turned out to be 0.016 µg/mL (≈ 0.0339 µM); in experiment [1] it was 0.25 µg/mL (≈ 0.529 µM).

Turning to `COc1ccc2nccc(-n3cc4c(n3)CCC(NC(=O)c3ccc5c(c3)NC(=O)CS5)C4)c2n1` (stereo not given), the minimum inhibitory concentration (MIC) came out at 4 µg/mL (≈ 8.22 µM) against Streptococcus pneumoniae, 128 µg/mL (≈ 263 µM) in the experiment on Escherichia coli and 0.125 µg/mL (≈ 0.257 µM) with Staphylococcus aureus. Further, the IC50 in experiment [2] was determined as 0.25 µg/mL (≈ 0.514 µM); in experiment [1] it was 0.06 µg/mL (≈ 0.123 µM).

Take `COc1ccc2nccc(-n3cc4c(n3)CCN(C(=O)c3ccc5c(c3)NC(=O)CS5)CC4)c2n1`: the MIC was 2 µg/mL (≈ 4.11 µM) against Streptococcus pneumoniae, 2 µg/mL (≈ 4.11 µM) with Escherichia coli and 1 µg/mL (≈ 2.06 µM) in the experiment on Staphylococcus aureus. The molecule also showed an IC50 in experiment [1] of 0.25 µg/mL (≈ 0.514 µM).

In the case of `COc1ccc2nccc(-n3ncc4c3CCC(NCc3ccc5c(c3)NC(=O)CS5)C4)c2c1` (stereo not given), the MIC against Streptococcus pneumoniae, against Escherichia coli and in the experiment on Staphylococcus aureus was above 128 µg/mL each time. Also, the IC50 in experiment [1] was found to be 2 µg/mL (≈ 4.24 µM).

Take `COc1ccc2nccc(-n3cc4c(n3)CC(NC(=O)c3ccc5c(c3)NC(=O)CS5)CC4)c2c1` (stereo not given): the minimal inhibitory concentration (MIC) in the experiment with Streptococcus pneumoniae is 4 µg/mL (≈ 8.24 µM); in the experiment on Escherichia coli it was 8 µg/mL (≈ 16.5 µM); against Staphylococcus aureus it was 8 µg/mL (≈ 16.5 µM). Besides, the figures for the half-inhibitory concentration (IC50) in experiment [2] and in experiment [1] were 0.5 µg/mL (≈ 1.03 µM) and above 8 µg/mL, respectively.

As for `COc1ccc2nccc(-n3cc4c(n3)CCC(NCc3ccc5c(c3)OCCO5)C4)c2c1` (stereo not given), the results for the MIC in the experiment with Streptococcus pneumoniae, against Escherichia coli and against Staphylococcus aureus were 0.5 µg/mL (≈ 1.13 µM), 64 µg/mL (≈ 145 µM) and 0.5 µg/mL (≈ 1.13 µM), respectively. The IC50 in experiment [2] is 0.06 µg/mL (≈ 0.136 µM); in experiment [1], 2 µg/mL (≈ 4.52 µM).

A word on the MIC: it is the lowest concentration that inhibits growth of the organism. Low values mean inhibition by little substance, high ones a need for much substance. What is called IC50 is the concentration needed to halve the response being measured. Low readings indicate greater potency, high ones weaker potency.
